Results from patent US6777445B2, “Fullerene pharmaceutical compositions for preventing or treating disorders” (priority 2000, dated 2004).

System: E. coli
Assay: E. coli-induced meningitis death, C60(C3) given immediately before E. coli (Test 1)
Assay type: in vivo, B6 mice
Settings: 6 mg/kg i.p. C60(C3), again at 24 and 48 hours
Experimental: E. coli ATCC 10536 was cultured in Luria-Bertain (LB) broth (1% NaCl, 1% tryptone, 0.5% yeast extract) for 12 hours and was subcultured in fresh medium for another 3 h. The concentration of E. coli was determined with a spectrophotometer (Beckman Instrument, Somerset, N.J.), with an optical density at 600 nm of 1 equal to […] (Wang, S. D., et al., J. Immunol. 152:5014-5021). For the induction of meningitis, groups of three to four mice were given intracerebral injections directly into the temporal area of a volume of 5×10^5 E. coli cells diluted in saline. The 100% lethal dose (LD100) by intracerebral injection in B6 mice is 5×10^5 E. coli cells. The animals were observed every 12 hours for a total of 6 days. In some experiments, the brains were aseptically removed and were homogenized with 3% gelatin (Difco Laboratories, Detroit, Mich.) in PBS. The samples were serial diluted, poured in agar plates, and incubated at 37° C. overnight. The number of colony forming units (CFU) of E. coli was quantitated and was expressed as the mean±standard deviation per mouse. […] The growth curve of E. coli was determined in LB broth to evaluate the direct antimicrobial activity of C60(C3).
Groups of 10 B6 mice were inoculated intracerebrally with 5×10^5 E. coli per mouse. […] The mice were monitored for death every 12 hours for 6 days.

C[C@@H]1C[C@H]2[C@@H]3CCC4=CC(=O)C=C[C@]4(C)[C@@]3(F)[C@@H](O)C[C@]2(C)[C@@]1(O)C(=O)CO [dexamethasone]
mice protected from E. coli-induced death: 20%
